Results reported in patent EP4178959B1, “NITROGEN HETEROCYCLIC CYTOKININ DERIVATIVES, COMPOSITIONS CONTAINING THESE DERIVATIVES AND USE THEREOF” (Univerzita Palackého v Olomouci, priority 2020, dated 2022).

Tests used:
[1] = Calcein AM cytotoxicity assay, B10A.4 cells; settings: mouse, Cytotoxicity IC50, B10A.4, first column headed B10A.4
Summary of the method: (§1)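 Compound concentrations tested in duplicate on normal cell lines using Calcein AM viability read-out; cytotoxicity expressed as IC50 (µmol/L).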

Zea mays seedlings = assay: Effect on development of Zea mays seedlings (hydroponic); assay type: in vivo, Zea mays cv. CELLUX
Protocol: Maize seeds (Zea mays cv. CELLUX) were imbibed in tap water and germinated on a wetted filter paper. After 3 days, the germinated seedlings were transferred to aerated hydroponic tanks filled with Hoagland's nutrient solution. The plants were grown in an environmental chamber with 16 h light period (250 μE m^-2 s^-1) at 27°C and 8 h dark period at 20°C. Tested compounds diluted in DMSO were added to nutrient solution immediately when seedlings were nested in the tanks or after two additional days of cultivation. Control plants were grown in parallel with addition of corresponding amount of DMSO (up to 0.01%). Root and leaf tissues of ten plants were harvested at different time points after the application of the compounds, immediately frozen in liquid nitrogen and used for cytokinin content and transcript level analysis. Length of primary root and the first leaf were determined with ruler on sets of twelve plants, each cultivated in the independent tank (for every cytokinin application repeated ten times). Dry mass of root system and the aerial part was determined after cutting off the kernel and desiccation in dryer for two days at 60°C. […] Fig. 4) and up to 1 micromolar concentration when more seedlings were in the solution (approx. 50 seedlings per 1 liter; Fig. 5). […] Table 7: […]

Arabidopsis thaliana [2] = assay: Arabidopsis root growth inhibition test; assay type: in vivo, Arabidopsis thaliana (ecotype Columbia); settings: for Primary root length 7-d, WT = 100%: 7-d-old plants
Protocol: Arabidopsis thaliana seeds (ecotype Columbia) were sterilized with 70% ethanol and 0.1% Triton X-100 and then washed 4 times with sterile water. The seeds were transferred to Petri dishes on a solid medium consisting of MS (2.2 g l^-1), sucrose (10 g l^-1), agar (8 g l^-1), and supplemented with cytokinins or DMSO control (0.1% DMSO). After incubation for 3 days in darkness at 4°C, the seeds were germinated and grown horizontally in an environmental chamber at 22/20 °C under an 8 h light (120 µmol photons m^-2 s^-1)/16 h dark cycle for 4 days. 7-d-old seedling were used for measurements of the primary root length. At least 35 plants were used for each treatment and each treatment was repeated in at least 5 individual Petri dishes. The length of the primary root was evaluated using Scion Image software (Scion Corporation, Frederick, MD, USA). All measured parameters were statistically evaluated between untreated and treated plants according to Student's unpaired t-test. […] Tab. Inhibition of the primary root growth in 7-d-old Arabidopsis plants. 100% = WT plants, DMSO treated.

excised wheat leaf tips = assay: Senescence inhibition on winter wheat leaf segments (chlorophyll retention); parameters: species or system Triticum aestivum cv. Hereward; settings: Triticum aestivum, foliar; retention of chlorophyll in excised wheat leaf tips, 96 h in the dark, at concentration with highest activity; read-out: Activity (%) [10^-4mol.l^-1 KTHP = 100%]
Summary of the method: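 First-leaf tips (~35 mm; five tips, 100 mg) were cut from 7-day wheat seedlings (cv. Hereward; 25 °C, 16/8 h light). Their basal ends stood in compound solutions made from DMSO stock brought to 10^-3 M with water.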

Arabidopsis thaliana [3] = assay: Effect on the root proliferation of Arabidopsis thaliana; assay type: in vivo, Arabidopsis thaliana (ecotype Columbia)
Protocol: Arabidopsis thaliana seeds (ecotype Columbia) were sterilized with 70% ethanol and 0.1% Triton X-100 and then washed with 70% ethanol containing 0.01% Triton X-100. Then the seeds were transferred to vertical square petri dishes (11 seeds per dish) on a solid medium consisting of MS (2.15 g/l), MES (0.5 g/l), sucrose (1 g/l), agar (11 g/l), buffered to pH 5.8, and various concentrations of tested compounds. The compounds were dissolved in DMSO, thus 0.05% DMSO was used as a control solution. After incubation for 3 days in darkness at 4°C, the seeds were germinated and grown in an environmental chamber (fluorescence light intensity 150 µE m^-2 s^-1, humidity 55%, 16 h day/8 h night, 22°C). […] The number of lateral roots was scored under a stereomicroscope. […] In addition, compounds with tetrahydropyranyl protection at N9 slightly increase the number of emerged lateral roots (Fig 3C). […] Table 6: […]

[4] = Calcein AM cytotoxicity assay, BJ cells; settings: human
Summary of the method: as §1

[5] = tested on: sweet peppers, cucumbers and tomatoes; assay: Field trials with vegetables, overall; assay type: in vivo; settings: 10 - 100 nM
Protocol: Besides, plants were treated with a commercial fertilizer (type Kristalon) with optimal ratio of N,P,K and micronutrients. Dosage of 2-fluoro-6-[(3-methoxylbenzyl)amino]-9-(tetrahydro-2H-pyran-2-yl)-9H-purine was in the range between 10 - 100 nM, but usually 50 or 100 nM from re-planting to the end of vegetation once a week 500 ml to each plant (Table 10). The application of the compound was performed 1-3 times per week (according to the cultivation system - field or hydroponic). Stock solution was prepared in the concentration range 1-5 µM, then dosing into hydroponic system, watering with fertilizer, or in concentration […] in final fertilizer for use in soil conditions. Number of replicates was 10 / 12 plants from each variant (including control).
In case of cucumbers, fruit weight harvested per plant varied from 99,6 / 110,0 %, number of fruits were 102,3 / 106,8 % compared to control. Fruit weight from 1 plant varied from 100,0 to 124,7 % and number of fruits varied from 92,9 to 143,2 %, compared to control, after application of the tested compound to sweet peppers. In most trials, the size of fruits increased after the application of the tested compound.

[6] = Calcein AM cytotoxicity assay, NIH3T3 cells; settings: mouse
Summary of the method: as §1

[7] = at concentration with highest activity

For `COc1cccc(CNc2nc(F)nc3c2ncn3C2CCCCO2)c1` (stereo not shown) [Compound 67, 2-Fluoro-6-[(3-methoxybenzyl)amino]-9-(tetrahydro-2H-pyran-2-yl)-9H-purine], the IC50 at 72 h [1] was greater than 167 µM, the “Root dry mass (%) [4 x 10^-8 mol.l^-1 Kin = 100%]” value (Zea mays seedlings; [7]) was 261.2 (± 20) % and the “Shoot dry mass (%) [10^-6 mol.l^-1 Kin = 100%]” value (Zea mays seedlings; [7]) was 127.6 (± 9) %. The “Concentration with highest activity” value (Zea mays seedlings; root dry mass) was 10^-7 mol.1^-1, the “effect on cell division and organ growth (in words)” value (Zea mays seedlings; root system and aerial part of seedlings) was “Positive effect” and the “Concentration with highest activity” value (Zea mays seedlings; shoot dry mass) was 10^-6 mol.1^-1. For the same molecule, the “root growth inhibition (in words)” value (Arabidopsis thaliana [2]; compared to WT, 7-d-old seedlings) was “did not cause significant root inhibition”, the “Primary root length 7-d, WT = 100%” value (Arabidopsis thaliana [2]; tested concentration 0.04 µmol.l^-1) was 96.9 (±2.4) % and the “Primary root length 7-d, WT = 100%” value (Arabidopsis thaliana [2]; tested concentration 1 µmol.l^-1) was 50.3 (±1.1) %. The “Primary root length 7-d, WT = 100%” value (Arabidopsis thaliana [2]; tested concentration 25 µmol.l^-1) was 34.9 (±2.1) %, the Emax (excised wheat leaf tips) was 195% and the “effect on elongation of primary root (in words)” value (Arabidopsis thaliana [3]; MS media, range of concentration 0.04 to 5 µM) was “does not have negative effect on elongation of primary root”. The “Concentration with highest activity” value (Arabidopsis thaliana [3]; number of lateral roots) was 10^-5 mol.l^-1, the IC50 at 72 h [4] was greater than 167 µM and the “effect on fertility term elongation of vegetables, number of fruits, protection against abiotic stress (in words)” value [5] was “positive effect”. It also gave an IC50 at 72 h [6] greater than 167 µM.
